Experimental data reported in PubChem BioAssay (NCI).
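Five compound concentrations were applied to cells in 96-well plates for 48 hours; endpoints were derived by simple linear interpolation of the resulting dose-response curve. TGI is the concentration that stops growth completely.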 Where a SMILES comes first, the peptide text is derived from it. The star is where a group is joined. Cbz = O=C(OCc1ccccc1)*

Assays:
Assay in all cases: growth of human tumour cells (NCI), 48 h
MDA-N = test system: MDA-N
T-47D breast = test system: T-47D breast
LXFL 529 NSCLC = test system: LXFL 529 NSCLC
M19-MEL melanoma = test system: M19-MEL melanoma
RXF-631 renal = test system: RXF-631 renal
SNB-78 CNS = test system: SNB-78 CNS
XF 498 CNS = test system: XF 498 CNS
DLD-1 colon = test system: DLD-1 colon
HOP-18 NSCLC = test system: HOP-18 NSCLC

## CN(CCNC(=O)c1nn(-c2ccc(Cl)cc2Cl)c2c1Cc1ccccc1-2)CCNC(=O)c1nn(-c2ccc(Cl)cc2Cl)c2c1Cc1ccccc1-2
MDA-N
  TGI: 4.89 µM
T-47D breast
  TGI: > 30.2 µM

## CN/N=C(\C)C(CN1CCCCC1)C(C1=C(O)c2ccccc2OC1)c1ccccc1 (stereo not drawn)
LXFL 529 NSCLC
  TGI: > 100 µM
M19-MEL melanoma
  TGI: > 100 µM
RXF-631 renal
  TGI: > 100 µM
SNB-78 CNS
  TGI: > 100 µM
XF 498 CNS
  TGI: > 100 µM

## CN/N=C(\C(=O)Nc1ccc(C(F)(F)F)cc1[N+](=O)[O-])C(c1cnc2ccc([N+](=O)[O-])cc2n1)[N+](=O)[O-] (stereo not drawn)
DLD-1 colon
  TGI: > 100 µM
LXFL 529 NSCLC
  TGI: > 100 µM
M19-MEL melanoma
  TGI: > 100 µM
SNB-78 CNS
  TGI: > 100 µM

## O=c1c(C(c2ccc([N+](=O)[O-])cc2)c2c(O)c3ccccc3n(-c3ccccc3)c2=O)c(O)c2ccccc2n1-c1ccccc1
DLD-1 colon
  TGI: > 100 µM
HOP-18 NSCLC
  TGI: 9.08 µM
LXFL 529 NSCLC
  TGI: 54.7 µM
M19-MEL melanoma
  TGI: > 100 µM
RXF-631 renal
  TGI: 44.6 µM
SNB-78 CNS
  TGI: > 100 µM
XF 498 CNS
  TGI: 58.4 µM

## O=C(O[C@H]1[C@@H]2C=CO[C@@H](OC3OC(CO)C(O)C(O)C3O)[C@@H]2[C@@]2(CO)O[C@@H]12)c1ccc(O)c(O)c1 (stereo partly drawn)
DLD-1 colon
  TGI: > 100 µM
LXFL 529 NSCLC
  TGI: > 100 µM
M19-MEL melanoma
  TGI: > 100 µM
SNB-78 CNS
  TGI: > 100 µM
XF 498 CNS
  TGI: > 100 µM

## Nc1ccn(CCOC(c2ccccc2)P(=O)(O)O)c(=O)n1 (stereo not drawn)
DLD-1 colon
  TGI: > 100 µM
LXFL 529 NSCLC
  TGI: > 100 µM
M19-MEL melanoma
  TGI: > 100 µM
SNB-78 CNS
  TGI: > 100 µM
XF 498 CNS
  TGI: > 100 µM

## O=C1NC(=NCc2ccc(F)cc2)N/C1=C\c1ccccc1Cl
MDA-N
  TGI: 40.3 µM
T-47D breast
  TGI: 29.4 µM

## Cc1cn(C2CC(N=[N+]=[N-])C(CO)O2)c(=O)n(CCCCBr)c1=O (stereo not drawn)
MDA-N
  TGI: > 100 µM
T-47D breast
  TGI: > 100 µM

## CC1=C[C@H]([C@H]2C=C(C)C(C(N)=O)=CN2Cc2c(Cl)cccc2Cl)N(Cc2c(Cl)cccc2Cl)C=C1C(N)=O
MDA-N
  TGI: > 75 µM
T-47D breast
  TGI: > 75 µM

## Nc1ncnc2c1ncn2[C@@H]1O[C@H](COP(=O)(O)OP(=O)(O)OC[C@H]2O[C@@H](OCCCO)[C@H](O)[C@@H]2O)[C@@H](O)[C@H]1O
MDA-N
  TGI: > 100 µM
T-47D breast
  TGI: > 100 µM

## COC(=O)[C@@H]1C[C@]2(Br)c3ccccc3N(S(=O)(=O)c3ccccc3)[C@@H]2N1C(=O)OC
MDA-N
  TGI: > 100 µM
T-47D breast
  TGI: > 100 µM

## CSc1ccc2c(cc1=O)C(NC(=O)c1ccccc1)CCc1cc(O)c(O)c(O)c1-2 (stereo not drawn)
DLD-1 colon
  TGI: 32.7 µM
HOP-18 NSCLC
  TGI: > 100 µM
LXFL 529 NSCLC
  TGI: 60.8 µM
M19-MEL melanoma
  TGI: 65 µM
SNB-78 CNS
  TGI: > 100 µM

## Cc1cc2c(=O)c(C)n[nH]c2c(C#N)c1C
DLD-1 colon
  TGI: > 100 µM
HOP-18 NSCLC
  TGI: > 100 µM
LXFL 529 NSCLC
  TGI: > 100 µM
M19-MEL melanoma
  TGI: > 100 µM
RXF-631 renal
  TGI: > 100 µM
XF 498 CNS
  TGI: > 100 µM

## O=C(O)/C=C/c1ccc(OS(=O)(=O)O)cc1
MDA-N
  TGI: > 100 µM
T-47D breast
  TGI: > 100 µM

## Cc1oc2nc(N(C)C)nc(NN)c2c1C
T-47D breast
  TGI: > 100 µM

## Cc1nn(C(=O)Cc2ccccc2)c2c1C(c1ccc([N+](=O)[O-])cc1)SC(N)=N2 (stereo not drawn)
MDA-N
  TGI: > 100 µM
T-47D breast
  TGI: > 100 µM

## CCCCc1nc(C)oc1C(C)C
MDA-N
  TGI: > 100 µM
T-47D breast
  TGI: > 100 µM

## COC(=O)C(CC(C)C)NC(=O)C(CCCN=C(N)N)NC(=O)OCc1ccccc1 (stereo not drawn) (Cbz-Arg-Leu-OMe; configuration not given here)
MDA-N
  TGI: > 100 µM
T-47D breast
  TGI: > 100 µM

## C=CCCCN1CCCCC1=S
DLD-1 colon
  TGI: > 100 µM
HOP-18 NSCLC
  TGI: > 100 µM
M19-MEL melanoma
  TGI: > 100 µM
RXF-631 renal
  TGI: > 100 µM
XF 498 CNS
  TGI: > 100 µM
